Measured values published in the NIST ThermoML archive (doi:10.1021/acs.jced.9b00381).
± gives the expanded uncertainty stated by the source.

Key:
[1] = Crystal; DSC
[2] = Molar enthalpy of transition or fusion; details: Crystal; DSC

For `Fc1c(I)c(F)c(I)c(F)c1I` [1,3,5-trifluoro-2,4,6-triiodobenzene], the Triple point temperature [1] was 424.01 ± 1 K and the “Molar enthalpy of transition or fusion” value [2] was 13.5 ± 0.44 kJ/mol.
